Patent publication US20230167058A1, “GPX4 COMPOUNDS AND COMPOSITIONS AND METHODS OF TREATMENT USING SAME” (THE TRUSTEES OF COLUMBIA UNIVERSITY IN THE CITY OF NEW YORK, priority 2020, published 2023)

Tests used:
[1] = system: HT1080 cells; test: Single-point ferroptosis test, cellular viability (CellTiter-Glo); type: cell-based, human; details: 125 μM LOC1886, 48 h
Protocol: 1000 cells of each HT-1080 or G401 cell line were plated 36 μL per well of a 384-well plate on day 1. The remaining cells were immediately tested for Western Blot (to monitor GPX4 protein overexpression level). For dose response curves, compounds were dissolved in DMSO and a 12-point, twofold dilution series was prepared. The compounds were then diluted 1:50 in media and 4 μL was added to each well of the plates on day 2. Final concentrations of the compounds on the 384-well plate started from 2 μM for RSL3/ML162 and 20 μM for IKE/FIN56/FINO2. For single-point ferroptosis test, HT1080 cells were treated either with 12.5 μM RSL3 or 125 μM LOC1886, with or without supplementation of 2 μM Fer-1. After 48 h of treatment, the viability of cells was measured using 1:1 dilution of the CellTiter-Glo luminescent reagent (Promega G7573) with media, which was read on a Victor 5 plate reader after 10 min of shaking at room temperature on day 4. The intensity of luminescence was normalized to that of DMSO control. Results were quantified using GraphPad Prism 9. Based on the dose-response curve of viability, area under curves were calculated and reported in bar graph formats with standard errors using GraphPad Prism 9.

[2] = target: T1, GPX4^U46C (Homo sapiens, UniProt P36969, U73C); test: Thermal shift assay (screen of LOC library); type: binding
T1 construct: His6 (N, cleaved yes); made in house; host or cells: E. coli BL21-Gold (DE3), M9 minimal medium with 15NH4Cl
T1 sequence (P36969 33-197 U73C): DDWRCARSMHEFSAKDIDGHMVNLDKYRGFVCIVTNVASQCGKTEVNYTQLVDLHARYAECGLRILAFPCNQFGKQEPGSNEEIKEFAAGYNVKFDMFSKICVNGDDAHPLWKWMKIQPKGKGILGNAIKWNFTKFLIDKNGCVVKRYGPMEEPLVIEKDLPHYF
Protocol: To fully utilize the versatility shown by the […] site to accommodate structurally diverse compounds, we applied thermal shift assay to screen 9,719 compounds in the Lead-Optimized-Compound (LOC) library for in vitro binders of GPX4^U46C, which would shift the melting temperature of GPX4^U46C (|ΔTm|>2° C., FIG. 12D) (Kaplan et al. 2015).
Since the binding of small molecules may alter the thermostability of protein, we applied thermal shift assay to screen the LOC library, which determined binding of ligand from the change of the unfolding transition temperature (ΔTm) obtained in the presence of ligands relative to that obtained in the absence of ligands (Kaplan et al. 2015; Lo et al. 2004). For higher throughput purpose, we adapted the assay on 384-well PCR plate. With the assistance of Biomek Automated Liquid Handler (Beckman), 2 μl 10 mM stock solution (in 100% DMSO) of the each compound was transferred from 384-well library plates to 38 μl FPLC buffer (100 mM Tris pH 8.0, 300 mM NaCl, 3 mM TCEP) and mixed in each well of a 384-well mother plate. The compound solution was then dispensed, 12 μl per well, into three 384-well PCR plates. GPX4^U46C protein and Sypro orange were manually added to the plate, with the final concentrations of 5 μM and 5×, respectively, to make a volume of 20 μl per well right before thermal shift analysis of the specific plate. The thermal shift assay was performed on the ViiA 7 Real-Time PCR system (Thermo Fisher) with the thermal protocol: 25° for 15 s, Increase temp to 99° at a rate of 0.05°/sec, 99° for 15 sec. The fluorescence was recorded and analyzed by Protein Thermal Shift™ software. The mean |ΔTm| value for the biological triplicates were calculated and used for hit identification.

[3] = system: GPX4 protein level in HT-1080 cells; test: Western blot GPX4 degradation study in HT-1080; type: cell-based, human; details: 1 μM RSL3, 1 μM ML162, 10 μM FIN56, 10 h, with 100 μM α-tocopherol
Method in brief: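 HT-1080 cells were co-treated 10 h with 100 μM α-tocopherol plus compound (RSL3 or ML162 at 1 μM; IKE or FIN56 at 10 μM) or vehicle. RIPA lysates were Western blotted for GPX4, with actin and GAPDH as loading references. Blots were quantified by infrared imaging.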

[4] = target: T1, GPX4^U46C; test: Inhibition of the activity of purified GPX4^U46C protein (NADPH-coupled); type: biochemical; details: 20 μM RSL3 vs DMSO
Protocol: Similar to the determination of cellular GPX4-specific activity, by coupling the oxidation of NADPH to NADP+ by oxidized glutathione produced by GPX4 in the presence of glutathione reductase, GPX4^U46C activity was assessed by measuring the decrease in NADPH (absorbance at 340 nm). GPX4 reaction buffer was prepared by adding 0.05 U/mL glutathione reductase, 210 μM GSH, 250 μM NADPH, 50 μM Cumene-OOH into 50 mM Tris HCl, pH 8.0, 0.5 mM EDTA. 15 μM His-tagged-GPX4^U46C pre-incubated with DMSO (vehicle) or 20 μM RSL3 was added to the GPX4 reaction buffer and the absorbance at 340 nm was monitored for the following 10 min. Results were quantified using GraphPad Prism 9.

Thermal shift ([2]; Table 1)	|ΔTm| ([2]; thermal shift screening top hit)	SMILES	induction of ferroptosis [1]	degradation of endogenous GPX4 [3]	enzymatic activity of GPX4^U46C after incubation [4]
positive	3 °C	COc1cccc2[nH]c(C(=O)n3ccnc3)cc12 [LOC1886]	able to induce ferroptosis to HT1080 cells		
		COC(=O)c1ccc([C@@H]2c3[nH]c4ccccc4c3C[C@@H](C(=O)OC)N2C(=O)CCl)cc1 [RSL3, (1S, 3R)-RSL3]		significantly promoted degradation of GPX4	inhibited the capability of GPX4 to reduce phospholipid hydroperoxides
